Values quoted from earlier work in patent publication US20140057987A1, “Disinfectant Spray with Indicator” (GENESIS LABORATORIES, INC., priority 2010, published 2014).

Conditions: colour change of indicator
For Cc1cc(C2(c3ccc(O)c(C)c3)OS(=O)(=O)c3ccccc32)ccc1O [Cresol Red], the “Transition pH range” value is given as 7.2-8.8 pH. In the case of O=S1(=O)OC(c2cc(Br)c(O)c(Br)c2)(c2cc(Br)c(O)c(Br)c2)c2ccccc21 [Bromophenol blue], the “Transition pH range” value is listed as 3.0-4.6 pH. In the case of O=C(O)c1cc(N=Nc2ccc([N+](=O)[O-])cc2)ccc1O [Alizarine Yellow R], the “Transition pH range” value is listed as 10.2-12.0 pH. In the case of Cc1cc2nc3ccc(N(C)C)cc3nc2cc1N.Cl [Neutral red], the “Transition pH range” value is listed as 6.8-8.0 pH. For Cc1c(C2(c3cc(Br)c(O)c(Br)c3C)OS(=O)(=O)c3ccccc32)cc(Br)c(O)c1Br [Bromocresol green], the “Transition pH range” value is listed as 3.8-5.4 pH. In the case of O=C1OC(c2ccc(O)cc2)(c2ccc(O)cc2)c2ccccc21 [Phenolphthalein], the “Transition pH range” value is listed as 8.3-10.0 pH. In the case of CN(C)c1ccc(N=Nc2ccc(S(=O)(=O)[O-])cc2)cc1.[Na+] [Methyl orange], the “Transition pH range” value is given as 3.1-4.4 pH. In the case of Nc1c(/N=N/c2ccc(-c3ccc(/N=N/c4cc(S(=O)(=O)O)c5ccccc5c4N)cc3)cc2)cc(S(=O)(=O)O)c2ccccc12 [Congo red], the “Transition pH range” value is listed as 3.0-5.0 pH. In the case of O=C1OC(c2ccc(O)c3ccccc23)(c2ccc(O)c3ccccc23)c2ccccc21 [Naphtholphthalein], the “Transition pH range” value is listed as 7.3-8.7 pH. For Cc1cc(O)c(C(C)C)cc1C1(c2cc(C(C)C)c(O)cc2C)OC(=O)c2ccccc21 [Thymolphthalein], the “Transition pH range” value is listed as 9.3-10.5 pH. In the case of CN(C)c1ccc(N=Nc2ccccc2)cc1 [Methyl yellow], the “Transition pH range” value is listed as 2.9-4.0 pH. For Cc1cc(C2(c3cc(C)c(O)c(Br)c3)OS(=O)(=O)c3ccccc32)cc(Br)c1O [Bromocresol purple], the “Transition pH range” value is given as 5.2-6.8 pH. In the case of CN(C)c1ccc(C(=C2C=CC(=[N+](C)C)C=C2)c2ccc(N(C)C)cc2)cc1 [Gentian violet(Methyl violet 10B), Gentian violet], the “Transition pH range” value is given as 0.0-2.0 pH. For Azolitmin, the “Transition pH range” value is given as 4.5-8.3 pH. For Cc1c(C2(c3cc(C(C)C)c(O)c(Br)c3C)OS(=O)(=O)c3ccccc32)cc(C(C)C)c(O)c1Br [Bromothymol blue], the “Transition pH range” value is listed as 6.0-7.6 pH.

Same assay, conditions: colour change of indicator; high pH color green
In the case of CN(C)c1ccc(/N=N/c2ccccc2C(=O)O)cc1 [Methyl red], the “Transition pH range” value is listed as 4.5-5.2 pH.

Same assay, conditions: colour change of indicator; high pH color yellow
In the case of CN(C)c1ccc(/N=N/c2ccccc2C(=O)O)cc1 [Methyl red], the “Transition pH range” value is listed as 4.4-6.2 pH.

Same assay, conditions: first transition
For CN(C)c1ccc(C(c2ccccc2)c2ccc(N(C)C)cc2)cc1 [Leucomalachite green], the “Transition pH range” value is given as 0.0-2.0 pH. In the case of Cc1cc(O)c(C(C)C)cc1C1(c2cc(C(C)C)c(O)cc2C)OS(=O)(=O)c2ccccc21 [Thymol blue], the “Transition pH range” value is listed as 1.2-2.8 pH.

Same assay, conditions: second transition
In the case of CN(C)c1ccc(C(c2ccccc2)c2ccc(N(C)C)cc2)cc1 [Leucomalachite green], the “Transition pH range” value is given as 11.6-14.0 pH. In the case of Cc1cc(O)c(C(C)C)cc1C1(c2cc(C(C)C)c(O)cc2C)OS(=O)(=O)c2ccccc21 [Thymol blue], the “Transition pH range” value is given as 8.0-9.6 pH.
